Experimental findings from PMC5889410, “Design and Biological Evaluation of Antifouling Dihydrostilbene Oxime Hybrids” (Marine Biotechnology (New York, N.y.), 2018) are described below.

The subject of data set [1] is marine bacteria. In words: Bacterial adhesion assay, whole panel of ten strains. As to conditions: tested up to 10 μg/mL, active = MIC of 10 μg/mL or below. It counts as cell-based, 10 marine bacterial strains. The method, boiled down: (§1)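 2 × 10^8 CFU/mL cells + compound 10–0.01 μg/mL, 48 h, 26 °C, peptone/seawater medium. Growth: OD 630 nm, MIC = lowest conc. lowering OD. Adhesion: wells rinsed with sterile seawater, air-dried, 0.3% crystal violet, OD 595 nm.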

For data set [2], the system named is Cylindrotheca closterium. Description: Microalgal growth assay (chlorophyll a). It is filed as cell-based. To be noted: 120 h, 5 days incubation, 10–0.01 μg/mL tested, read-out: MIC against the growth (G) of microalgae, C. closterium.
Data set [3] has as its system Porphyridium purpureum. Description: Microalgal growth assay (chlorophyll a). It is filed as cell-based. To be noted: 120 h, 5 days incubation, 10–0.01 μg/mL tested, read-out: MIC against the growth (G) of microalgae, P. purpureum.
Data set [4] has as its system Pleurochrysis roscoffensis. In words: Microalgal growth assay (chlorophyll a). It counts as cell-based. To be noted: Chrysotila roscoffensis, 120 h, 5 days incubation, 10–0.01 μg/mL tested, read-out: MIC against the growth (G) of microalgae, P. roscoffensis.
The subject of data set [5] is Halamphora coffeaeformis. In words: Microalgal growth assay (chlorophyll a). It counts as cell-based. As to conditions: Halamphora coffeiformis, 120 h, 5 days incubation, 10–0.01 μg/mL tested, read-out: MIC against the growth (G) of microalgae, H. coffeaformis.
Data set [6] has as its system Balanus improvisus cyprid larvae. In words: whole plant or invertebrate. To be noted: for IC50: Amphibalanus improvisus, 120 h, read-out: IC50 (cyprid settlement inhibition). It is filed as in vivo. The method, boiled down:
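Freshly molted cyprids (18–22 per dish) exposed in filtered seawater to 0.1–10 μg/mL compound (0.1% DMSO controls) for 5 days at 20–25 °C. Settled, swimming and dead larvae counted by microscope; IC50 is the concentration preventing 50% settlement, n = 4, determined only for compounds inhibiting >50% at 5 μg/mL.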

For data set [7], the system named is Vibrio proteolyticus. In words: Bacterial adhesion assay (crystal violet, OD 595 nm). It is filed as cell-based. As to conditions: 48 h, read-out: MIC against the adhesion of marine bacteria, V.p. An excerpt:
(§2) Cyprid larvae of B. improvisus were reared in a laboratory cultivating system at Tjärnö Marine Biological Laboratory, University of Gothenburg, Sweden, as previously described by Berntsson et al. ([2000]). Four pure, but non-axenic, marine microalgae (obtained from Algobank, Caen, France) and 10 marine bacterial strains were used (Table 1) as representative microfoulers. These strains represent fouling species encountered in both estuarine and marine environments (Moodie et al. [2017b]). The bacteria were grown at 26 °C in a marine medium, composed of 0.5% peptone (neutralized bacteriological peptone, Oxoid Ltd.) in filtered (Whatman 1001–270, pore size 11 μm) natural seawater. Microalgae were grown and maintained at 22 °C in F/2 medium.
(§3) Bacterial strain adhesion and growth were determined according to the methods of Thabard et al. ([2011]). Bacterial suspensions (100-μL aliquots, 2 × 10^8 colony forming units/mL) were aseptically added to the compound containing microplate wells (10–0.01 μg/mL), and the plates were incubated for 48 h at 26 °C. Media only was used as a blank. Bacterial growth was monitored spectroscopically at 630 nm. The minimal inhibitory concentration (MIC) for bacterial growth was defined as the lowest concentration which results in a decrease in OD. After 48-h incubation time, the bacterial adhesion assay was conducted by emptying the wells and rinsing with sterile seawater (100 μL) to remove non-attached cells, and air-drying at room temperature. The residual bacterial biofilm was stained with aqueous crystal violet (100 μL, 0.3% v/v) and the OD measured at 595 nm (Sonak and Bhosle [1995]). […] If inhibition was observed, toxicity tests were conducted. The well contents were transferred into a flask of fresh media, and growth was measured after 5 days of additional incubation. The mode of action was deemed biostatic if an increase in OD was measured at 595 nm (Moodie et al. [2017a]).

The test system of data set [8] is Vibrio aestuarianus. Described as above. It is filed as cell-based. As to conditions: 48 h, read-out: MIC against the adhesion of marine bacteria, V.a.
Text: as §2, §3

For data set [9], the system named is Vibrio carchariae. The data set is described as above. It counts as cell-based. As to conditions: Vibrio harveyi, 48 h, read-out: MIC against the adhesion of marine bacteria, V.c.
Text: as §2, §3

In data set [10] the test system is Vibrio harveyi. The data set is described as above. To be noted: 48 h, read-out: MIC against the adhesion of marine bacteria, V.h. It counts as cell-based.
Text: as §2, §3

Data set [11] has as its system Halomonas aquamarina. Described as above. It counts as cell-based. To be noted: Vreelandella aquamarina, 48 h incubation, 10–0.01 μg/mL tested, read-out: MIC against the adhesion of marine bacteria, H.a.
Text: as §2, §3

Data set [12] deals with marine bacteria. Description: Bacterial growth assay, whole panel of ten strains. It counts as cell-based, 10 marine bacterial strains. To be noted: tested up to 10 μg/mL.
Text: as §2, §3

The subject of data set [13] is microalgae. Description: Microalgal adhesion and growth, whole panel of four species. It is filed as cell-based, four marine microalgae. To be noted: 10–0.01 μg/mL tested.
Text: as §2
(§4) Microplates containing the compounds in ranging concentrations (10–0.01 μg/mL) were prepared from MeOH stock solutions as previously described (Trepos et al. [2014]; Moodie et al. [2017a]). Microalgal stock solutions were prepared using the chlorophyll analysis methodology of Chambers et al. ([2011]). The pretreated microplate wells were treated with 100 μL of the algal stock solutions (0.1 mg chlorophyll a/mL). The plates were then incubated for 5 days at 20 °C under constant light exposure (140 μmol m^−2 s^−1). Both microalgal adhesion and growth inhibition were measured. Growth was determined by analysis of liberated chlorophyll a after centrifugation and methanol addition. Chlorophyll a was quantified fluorometrically. MIC value for algal growth was defined as the lowest concentration yielding a decrease in chlorophyll a content. Microalgal adhesion was determined in an analogous manner where the non-attached algal cells were removed prior to methanol addition (100 μL), releasing chlorophyll a from the remaining algal biofilms. The MIC for adhesion was defined as the lowest compound concentration causing a reduction in […]. Toxicity experiments were performed in an analogous manner to those described for the bacterial assays.

Data set [14] deals with Halamphora coffeaeformis. Description: Microalgal adhesion assay (chlorophyll a). It is filed as cell-based. To be noted: Halamphora coffeiformis, 120 h, 5 days incubation, 10–0.01 μg/mL tested, read-out: MIC against the adhesion (A) of microalgae, H. coffeaformis.
Text: as §2, §4

In data set [15] the test system is Roseobacter litoralis. Description: Bacterial growth assay (OD 630 nm). It counts as cell-based. As to conditions: 48 h incubation, 10–0.01 μg/mL tested, read-out: MIC against the growth of marine bacteria, R.l. The method in brief: as §1
For data set [16], the system named is Pseudoalteromonas elyakovii. In words: Bacterial growth assay (OD 630 nm). It is filed as cell-based. As to conditions: 48 h incubation, 10–0.01 μg/mL tested, read-out: MIC against the growth of marine bacteria, P.e. The method in brief:
as §1

Data set [17] relates to Vibrio proteolyticus. In words: Bacterial growth assay (OD 630 nm). It is filed as cell-based. As to conditions: 48 h incubation, 10–0.01 μg/mL tested, read-out: MIC against the growth of marine bacteria, V.p. The method, boiled down:
as §1

Data set [18] relates to Vibrio aestuarianus. In words: Bacterial growth assay (OD 630 nm). It counts as cell-based. As to conditions: 48 h incubation, 10–0.01 μg/mL tested, read-out: MIC against the growth of marine bacteria, V.a. The method, boiled down: as §1
For data set [19], the system named is Vibrio natriegens. In words: Bacterial growth assay (OD 630 nm). It is filed as cell-based. As to conditions: 48 h incubation, 10–0.01 μg/mL tested, read-out: MIC against the growth of marine bacteria, V.n. The method, boiled down:
as §1

Data set [20] has as its system Shewanella putrefaciens. Description: Bacterial growth assay (OD 630 nm). It counts as cell-based. As to conditions: 48 h incubation, 10–0.01 μg/mL tested, read-out: MIC against the growth of marine bacteria, S.p. The method, boiled down:
as §1

For data set [21], the system named is Vibrio carchariae. In words: Bacterial growth assay (OD 630 nm). It counts as cell-based. To be noted: Vibrio harveyi, 48 h incubation, 10–0.01 μg/mL tested, read-out: MIC against the growth of marine bacteria, V.c. The method, boiled down:
as §1

The test system of data set [22] is Vibrio harveyi. Description: Bacterial growth assay (OD 630 nm). To be noted: 48 h incubation, 10–0.01 μg/mL tested, read-out: MIC against the growth of marine bacteria, V.h. It counts as cell-based. The method in brief: as §1
For data set [23], the system named is Halomonas aquamarina. Description: Bacterial growth assay (OD 630 nm). It is filed as cell-based. As to conditions: Vreelandella aquamarina, 48 h incubation, 10–0.01 μg/mL tested, read-out: MIC against the growth of marine bacteria, H.a. The method in brief:
as §1

For data set [24], the system named is Cylindrotheca closterium. Description: Microalgal adhesion assay (chlorophyll a). As to conditions: 120 h, 5 days incubation, 10–0.01 μg/mL tested, read-out: MIC against the adhesion (A) of microalgae, C. closterium. It counts as cell-based.
Text: as §2, §4

The subject of data set [25] is Porphyridium purpureum. Description: Microalgal adhesion assay (chlorophyll a). It counts as cell-based. As to conditions: 120 h, 5 days incubation, 10–0.01 μg/mL tested, read-out: MIC against the adhesion (A) of microalgae, P. purpureum.
Text: as §2, §4

For data set [26], the system named is Pleurochrysis roscoffensis. Description: Microalgal adhesion assay (chlorophyll a). To be noted: Chrysotila roscoffensis, 120 h, 5 days incubation, 10–0.01 μg/mL tested, read-out: MIC against the adhesion (A) of microalgae, P. roscoffensis. It counts as cell-based.
Text: as §2, §4

The structures appear in SMILES notation. Converted amounts (≈) assume the structure as drawn. Where only a bound is given, the exact number is not on record here.

Usually MIC stands for the least concentration at which growth counts as inhibited. As usually defined, the IC50 is the concentration needed to halve the response being measured. As for `COc1cc(OC)cc(C(Cc2ccccc2)=NO)c1` [Compound 15, 1-(3,5-Dimethoxyphenyl)-1-Hydroxyimino-2-Phenylethane], in data set [1], the “MIC / activity against the adhesion of all bacteria tested” value is reported as “displayed inhibitory activities”. Besides, the minimum inhibitory concentration (MIC) was greater than 10 µg/mL in [2]; greater than 10 µg/mL in [3]; greater than 10 µg/mL in [4]; greater than 10 µg/mL in [5]; greater than 10 µg/mL in [7]; 10 µg/mL (≈ 36.9 µM) in data set [8]. The MIC in data set [9], in [10], in data set [11] and in data set [14] was 10 µg/mL (≈ 36.9 µM) in each case. In addition, the IC50 in [6] is 0.75 µg/mL (≈ 2.76 µM). Moreover, in data set [12], the “MIC / activity against the growth of all bacteria tested” value is “^aCompound 15 was inactive against the growth of all bacteria tested up to 10 μg/mL”. Also, in data set [13], the “MIC / activity against the attachment and growth of microalgae” value is recorded as “not significantly active”.

For the compound `COc1ccc(CC(=NO)c2ccc(O)c(OC)c2)cc1` [Compound 11, 1-(3-methoxy-4-hydroxyphenyl)-1-hydroxyimino-2-(4’-methoxyphenyl)-ethane], in data set [1], the “MIC / activity against the adhesion of all bacteria tested” value was “^aCompounds 7, 8, 10, 11, and 12 were inactive against the adhesion of all bacteria tested up to 10 μg/mL”. The MIC was 10 µg/mL (≈ 34.8 µM) in data set [2]; 10 µg/mL (≈ 34.8 µM) in data set [3]; 10 µg/mL (≈ 34.8 µM) in [4]; greater than 10 µg/mL in data set [5]; greater than 10 µg/mL in data set [15]; greater than 10 µg/mL in data set [16]. The MIC in [17], in data set [18], in data set [19], in data set [20], in [21] and in data set [22] was greater than 10 µg/mL each time. For the same compound, the MIC was 10 µg/mL (≈ 34.8 µM) in [23], greater than 10 µg/mL in [24], greater than 10 µg/mL in [25] and greater than 10 µg/mL in data set [26]. Also, in data set [6], the IC50 is greater than 5 µg/mL. The “inhibition of cyprid settlement in the initial screen” value in data set [6] (B. improvisus, at 5.0 μg/mL) was “inactive”. Besides, the “Toxicity (%) (dead cyprids)” value in data set [6] (Balanus improvisus, in vivo, 5 days, 5 μg/mL) was determined as 5.3%.
